From patent US12678387B2, “Composition for alleviating hair loss or promoting hair growth” (LG HOUSEHOLD & HEALTH CARE LTD., priority 2020, dated 2026)

Experiments:
[1] = system: Human-derived dermal papilla cells (DPCs); assay: Enhancement of activity of dermal papilla cells (CCK-8 method); type: cell-based; settings: for Activity of dermal papilla cells (%): incubated for a day, percentage of the control group as 100; for Effect on activity and proliferation of dermal papilla cells (in words): summary of Table 3
Protocol: Human-derived dermal papilla cells (DPCs) were purchased from PromoCell. The DPCs were cultured in DMEM (Hyclone Inc., UT, USA) containing 5% fetal bovine serum (FBS; GIBCO, NY, USA), 100 units/mL penicillin and 100 μg/mL streptomycin under the condition of 37° C. and 5% CO2. The cultured DPCs were seeded onto a 96-well plate at 3,000 cells/well and then cultured for 24 hours under a 0.1% serum condition. […] After the incubation, the enhancement of cellular activity was evaluated by the CCK method. The cell culture was treated and incubated with CCK-8 at 1:10 for 1 hour. 1 hour later, the absorbance of each well was measured at 450 nm. All the experiments were 3 times and the absorbance was averaged. The result was expressed as percentage of the control group as 100.

androgen receptor = assay: Androgenic activity: MMTV-Luc transcriptional activation assay in 22Rv1 cells with DHT; type: cell-based, human; settings: for Inhibition of androgenic activity (%): 10 μg/mL together with 1 nM DHT, 24 hours; for Effect of inhibiting androgenic activity (in words): summary of Table 6
Protocol: The stable cell line was maintained by subculturing using RPMI1640 and 10% fetal bovine serum (GIBCO BRL, Gaithersburg, MD, USA). For transcriptional activation assay, the cells were seeded in a 96-well plate, with 25,000 cells per well, while replacing the medium with phenol red-free RPMI1640 containing 5% charcoal-stripped fetal bovine serum. […] The cell culture was treated and incubated with CCK-8 at 1:10 for 2 hours. 2 hour later, the absorbance of each well was measured at 450 nm. All the experiments were 3 times and the absorbance was averaged.

[2] = system: Human-derived dermal papilla cells (DPCs); assay: Enhancement of mitochondrial activity of dermal papilla cells (JC-1 method); type: cell-based; settings: for Mitochondrial activity of dermal papilla cells (%): incubated for a day, percentage of the control group as 100; for Effect on mitochondrial activity of dermal papilla cells (in words): summary of Table 4
Protocol: Human-derived dermal papilla cells (DPCs) were purchased from PromoCell. The DPCs were cultured in DMEM (Hyclone Inc., UT, USA) containing 5% fetal bovine serum (FBS; GIBCO, NY, USA), 100 units/mL penicillin and 100 μg/mL streptomycin under the condition of 37° C. and 5% CO2. The cultured DPCs were seeded onto a 96-well plate at 3,000 cells/well and then cultured for 24 hours under a 0.1% serum condition. […] After the incubation, the degree of cell proliferation was evaluated by the JC-1 method. The cell culture was treated and incubated with JC-1 at 1:100 for 1 hour. 1 hour later, the fluorescence of each well was measured at 590 nm and 530 nm. All the experiments were 3 times and the fluorescence intensity was averaged. The result was expressed as percentage of the control group as 100.

Wnt/β-catenin signaling = assay: Wnt/β-catenin luciferase reporter assay in Wnt Reporter HEK293A cells; type: cell-based; settings: for Wnt signaling activity for activating hair follicles (%): untreated group 100%; for Wnt signaling activity (in words): summary of Table 5
Description: In general, the Wnt/β-catenin signaling activated in the dermal papillae during transition from the […] to the anagen transition in the hair growth cycle begins as the hair starts to grow and occurs throughout the anagen phase. In the telogen and catagen phases, the Wnt/β-catenin signaling decreases or disappears, resulting in degeneration of hair follicles and shedding of hair. Therefore, it was investigated in the examples how much the momordin Ic, platycodin D2, polygalacin D or pseudoginsenoside RT5 of the present disclosure contributes to the amplification of Wnt/β-catenin signaling.
Wnt3a protein was used as a positive control group for amplifying Wnt/β-catenin signaling, and DMSO was used as a negative control group. After seeding Wnt Reporter HEK293A cells in a 96-well culture plate, with 3×10^4 cells per well, and then treating with the momordin Ic, platycodin D2, polygalacin D or pseudoginsenoside RT5 of the present disclosure as described in Table 5, reporter assay was conducted using a Promega's luciferase assay kit (E1960). The experiment was conducted according to the manufacturer's instructions and the activity of the Wnt/β-catenin promoter was measured using a luminometer (Victor; PerkinElmer, Waltham, Massachusetts, USA).

Compound	Activity of dermal papilla cells (%) ([1]; 10 μg/mL)	Effect on activity and proliferation of dermal papilla cells (in words) [1]	Inhibition of androgenic activity (%) (androgen receptor)	Mitochondrial activity of dermal papilla cells (%) ([2]; 10 μg/mL)	Effect on mitochondrial activity of dermal papilla cells (in words) [2]	Activity of dermal papilla cells (%) ([1]; 2 μg/mL)	Mitochondrial activity of dermal papilla cells (%) ([2]; 2 μg/mL)	Wnt signaling activity for activating hair follicles (%) (Wnt/β-catenin signaling; 2 μg/mL)	Wnt signaling activity for activating hair follicles (%) (Wnt/β-catenin signaling; 10 μg/mL)	Wnt signaling activity (in words) (Wnt/β-catenin signaling)	Effect of inhibiting androgenic activity (in words) (androgen receptor)
C[C@@H]1O[C@@H](O[C@H]2[C@H](O[C@H]3[C@H](O[C@H]4CC[C@]5(C)[C@H]6CC=C7[C@@H]8CC(C)(C)CC[C@]8(C(=O)O)CC[C@@]7(C)[C@]6(C)CC[C@H]5C4(C)C)OC[C@H](O)[C@@H]3O)O[C@H](CO)[C@@H](O)[C@@H]2O)[C@H](O)[C@H](O)[C@H]1O [Raddeanin A, raddeanin A]	130	superior effect of enhancing the activity of dermal papilla cells	10	–	–	–	–	–	–	–	–
C[C@@H]1CC[C@]2(C(=O)O)CC[C@]3(C)C(=CC[C@@H]4[C@@]5(C)CC[C@H](O[C@@H]6OC[C@H](O)[C@H](O)[C@H]6O)C(C)(C)[C@@H]5CC[C@]43C)[C@@H]2[C@]1(C)O [Ziyuglycoside II, ziyuglycoside II]	139	superior effect of enhancing the activity of dermal papilla cells	–	105	superior effect of enhancing the mitochondrial activity	–	–	–	–	–	–
Nc1cc(N2CCCCC2)nc(N)[n+]1[O-] [Minoxidil, 2,4-diamino-6-piperidinopyrimidine 3-oxide, reference compound]	–	–	–	–	–	121	129	82	–	–	–
CC(C)(O)[C@H]1CC[C@@](C)([C@H]2CC[C@]3(C)[C@@H]2[C@H](O)C[C@@H]2[C@@]4(C)CC[C@H](O)C(C)(C)[C@@H]4[C@@H](O[C@@H]4O[C@H](CO)[C@@H](O)[C@H](O)[C@H]4O)C[C@]23C)O1 [Pseudoginsenoside RT5, pseudoginsenoside RT5]	141	superior effect of enhancing the activity of dermal papilla cells	8	112	superior effect of enhancing the mitochondrial activity	–	–	–	120	superior Wnt signaling activity	–
C[C@@H]1O[C@@H](O[C@H]2[C@H](OC(=O)[C@]34CCC(C)(C)C[C@H]3C3=CC[C@@H]5[C@@]6(C)C[C@H](O)[C@H](O[C@@H]7O[C@H](CO)[C@@H](O)[C@H](O)[C@H]7O)[C@@](C)(CO)[C@@H]6CC[C@@]5(C)[C@]3(C)C[C@H]4O)OC[C@H](O)[C@@H]2O)[C@H](O)[C@H](O)[C@H]1O[C@@H]1OC[C@@H](O)[C@H](O[C@@H]2OC[C@](O)(CO)[C@H]2O)[C@H]1O [Polygalacin D, polygalacin D]	164	superior effect of enhancing the activity of dermal papilla cells	26	–	–	–	–	–	293	superior Wnt signaling activity	superior effect of inhibiting androgenic activity
CC1(C)CC[C@]2(C(=O)O)CC[C@]3(C)C(=CC[C@@H]4[C@@]5(C)CC[C@H](O[C@@H]6O[C@H](C(=O)O)[C@@H](O)[C@H](O[C@@H]7OC[C@@H](O)[C@H](O)[C@H]7O)[C@H]6O)C(C)(C)[C@@H]5CC[C@]43C)[C@@H]2C1 [Momordin Ic, momordin Ic]	148	superior effect of enhancing the activity of dermal papilla cells	12	120	superior effect of enhancing the mitochondrial activity	–	–	–	370	superior Wnt signaling activity	–
CC(C)=CCC[C@](C)(O)[C@H]1CC[C@]2(C)[C@@H]1[C@H](O)C[C@@H]1[C@@]3(C)CC[C@H](O)C(C)(C)[C@@H]3[C@@H](O[C@@H]3O[C@H](CO)[C@@H](O)[C@H](O)[C@H]3O[C@@H]3OC[C@@H](O)[C@H](O)[C@H]3O)C[C@]12C [Notoginsenoside R2, notoginsenoside R2]	131	superior effect of enhancing the activity of dermal papilla cells	29	117	superior effect of enhancing the mitochondrial activity	–	–	–	–	–	superior effect of inhibiting androgenic activity
asiaticoside B	131	superior effect of enhancing the activity of dermal papilla cells	6	151	superior effect of enhancing the mitochondrial activity	–	–	–	–	–	–
C[C@@H]1O[C@@H](O[C@H]2[C@H](OC(=O)[C@]34CCC(C)(C)C[C@H]3C3=CC[C@@H]5[C@@]6(C)C[C@H](O)[C@H](O[C@@H]7O[C@H](CO)[C@@H](O)[C@H](O[C@@H]8O[C@H](CO)[C@@H](O)[C@H](O)[C@H]8O)[C@H]7O)C(CO)(CO)[C@@H]6CC[C@@]5(C)[C@]3(C)C[C@H]4O)OC[C@H](O)[C@@H]2O)[C@H](O)[C@H](O)[C@H]1O[C@@H]1OC[C@@H](O)[C@H](O[C@@H]2OC[C@](O)(CO)[C@H]2O)[C@H]1O [Platycodin D2, platycodin D2]	162	superior effect of enhancing the activity of dermal papilla cells	16	–	–	–	–	–	216	superior Wnt signaling activity	superior effect of inhibiting androgenic activity
CC(C)C1=CC(=O)C(C)(C2C(O)CC3(C)C4CC=C5C(CCC(OC6OC(CO)C(O)C(O)C6OC6OC(C)C(O)C(O)C6O)C5(C)C)C4(C)C(=O)CC23C)O1 (centres unmarked) [Picfeltarraenin IB, picfeltarraenin IB]	139	superior effect of enhancing the activity of dermal papilla cells	–	–	–	–	–	–	–	–	–
CC(C)=CCC[C@](C)(O[C@@H]1O[C@H](CO)[C@@H](O)[C@H](O)[C@H]1O)[C@H]1CC[C@]2(C)[C@@H]1[C@H](O)C[C@@H]1[C@@]3(C)CC[C@H](O[C@@H]4O[C@H](CO)[C@@H](O)[C@H](O)[C@H]4O[C@@H]4O[C@H](CO)[C@@H](O)[C@H](O)[C@H]4O)C(C)(C)[C@@H]3[C@@H](O)C[C@]12C [Vina-ginsenoside R4, vina-ginsenoside R4]	137	superior effect of enhancing the activity of dermal papilla cells	4	111	superior effect of enhancing the mitochondrial activity	–	–	–	–	–	–
CC(C)=C[C@@H]1CO[C@]23C[C@@]4(CO2)[C@@H](CC[C@@H]2[C@@]5(C)CC[C@H](O[C@H]6OC[C@H](O)[C@H](O[C@H]7O[C@H](COS(=O)(=O)O)[C@@H](O)[C@H](O)[C@H]7O)[C@H]6O[C@@H]6O[C@@H](CO)[C@H](O)[C@H]6O)C(C)(C)[C@@H]5CC[C@]24C)[C@H]3[C@@]1(C)O [Bacopaside I, bacopaside I]	133	superior effect of enhancing the activity of dermal papilla cells	6	110	superior effect of enhancing the mitochondrial activity	–	–	–	–	–	–
